In test [1] the test system is T-cell. Briefly: CD25 cell surface staining on T-cells co-stimulated with anti-CD3 and anti-CD28 antibody (Biological Example 2). As to conditions: Homo sapiens, T-cell, primary human total T-cells, baseline = anti-CD3/anti-CD28 stimulated cells without inhibitor, read-out: CD25 staining, Anti-CD3/Anti-CD28 stimulation, fold change over baseline; for fold induction at 0.3 µM: 0.3 μM compound; for fold induction at 1 µM: 1 μM compound; for fold induction at 4 µM: 4 μM compound. It counts as cell-based, human. In a few lines:
(§1)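 No assay protocol given; T-cells stimulated with anti-CD3 alone or anti-CD3 plus anti-CD28, with or without Cbl-b inhibitor. Activation read as IL-2 secretion or CD25 surface staining, expressed as fold over baseline from uninhibited cells […].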

In test [2] the test system is T-cell. Description: IL-2 secretion from T-cells co-stimulated with anti-CD3 and anti-CD28 antibody (Biological Example 2). It counts as cell-based, human. The conditions noted are these: Homo sapiens, T-cell, primary human total T-cells, baseline = anti-CD3/anti-CD28 stimulated cells without inhibitor, read-out: IL-2 secretion, Anti-CD3/Anti-CD28 stimulation, fold change over baseline; for fold induction at 0.3 µM: 0.3 μM compound; for fold induction at 1 µM: 1 μM compound; for fold induction at 4 µM: 4 μM compound. The method in brief: as §1

Test [3] concerns the target T1, Cbl-b (Homo sapiens, UniProt Q13191). Briefly: Cbl-b activity assay (Cbl-b inhibition assay), TR-FRET of Cbl-b interaction with UbcH5B-Ub. The class given is biochemical. As to conditions: assay buffer with 100 mM NaCl, 60 nM Src kinase; read-out: Cbl-b activity IC50. In a few lines:
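TR-FRET readout of Cbl-b binding to Bodipy-fluorescein N-terminally labeled Ub conjugated to UbcH5B C85K, measured with compound present. After compound incubation, 60 nM Src kinase with 1 mM ATP and 5 mM MgCl2 (final) was added for 1.5 h, then a further 1 h incubation; asterisked values used 50 mM NaCl buffer and 30 nM Src.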

Test [4] concerns the target T1, Cbl-b. Description: Cbl-b inhibition assay (Cbl-b activity assay, FRET, Biological Example 1; 100 mM NaCl, 60 nM Src kinase). The class given is biochemical. As to conditions: upper bound stated in text lists; read-out: IC50 values in the Cbl-b inhibition assay of Biological Example 1. The method in brief:
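Binding-based Cbl-b activity assay. Src-phosphorylated, N-terminally biotin-Avi-tagged Cbl-b recruits labelled UbcH5B-Ub, and proximity to streptavidin-terbium yields FRET.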

Test [5] has as its system T-cell. Description: IL-2 secretion from T-cells stimulated with anti-CD3 antibody alone (Biological Example 2). The class given is cell-based. The conditions noted are these: primary human total T-cells, read-out: IL-2 secretion, Anti-CD3 stimulation, fold change over baseline; for fold induction at 1 µM: 1 μM compound; for fold induction at 8 µM: 8 μM compound.
Test [6] relates to T-cell. Briefly: CD25 cell surface staining on T-cells stimulated with anti-CD3 antibody alone (Biological Example 2). It counts as cell-based. As to conditions: primary human total T-cells, baseline = anti-CD3/anti-CD28 stimulated cells without inhibitor, read-out: CD25 staining, Anti-CD3 stimulation, fold change over baseline; for fold induction at 1 µM: 1 μM compound; for fold induction at 8 µM: 8 μM compound.

The target in another test is Cbl-b (residues 36-427) (Homo sapiens, UniProt Q13191). Briefly: Cbl-b binding assay (SPR, Biacore T200). As to conditions: 20° C., 1:1 binding model. The method in brief: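 Affinities derived from global 1:1 steady-state or kinetic fits of double-referenced, solvent-corrected SPR data, 20 °C, NeutrAvidin-capture chip. Compound series (top 100 or 50 μM, 8–10 points) injected 50 s, 90–180 s dissociation. Asterisked values used 50 mM instead of 100 mM NaCl and 30 nM Src kinase.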
Chain of Cbl-b (residues 36-427) (Q13191 36-427): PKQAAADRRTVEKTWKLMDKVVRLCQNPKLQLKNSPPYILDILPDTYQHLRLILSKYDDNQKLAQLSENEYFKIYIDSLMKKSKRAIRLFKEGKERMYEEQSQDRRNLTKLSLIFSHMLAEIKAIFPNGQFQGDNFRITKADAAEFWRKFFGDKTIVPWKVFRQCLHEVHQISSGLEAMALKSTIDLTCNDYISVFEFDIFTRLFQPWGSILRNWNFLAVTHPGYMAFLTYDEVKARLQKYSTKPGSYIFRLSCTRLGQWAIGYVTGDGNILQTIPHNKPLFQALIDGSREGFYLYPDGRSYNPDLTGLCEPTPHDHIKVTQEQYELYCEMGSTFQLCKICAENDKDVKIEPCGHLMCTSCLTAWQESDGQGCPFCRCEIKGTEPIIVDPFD

Some results are limits rather than exact numbers.

T1 sequence (Q13191 36-427): as above

A word on the IC50: it is the midpoint of a concentration-inhibition curve. One may read the Kd as the constant that tells how readily two partners part at equilibrium. Read a low Kd as a tighter complex. `CC(O)c1cc2c(c(C(F)(F)F)c1)CN(c1cccc([C@@](C)(F)C(F)(F)c3nncn3C)c1)C2=O` (stereo partly drawn) [Compound 446, 6-(1-hydroxyethyl)-2-(3-((R)-1,1,2-trifluoro-1-(4-methyl-4H-1,2,4-triazol-3-yl)propan-2-yl)phenyl)-4-(trifluoromethyl)isoindolin-1-one]: the values for the fold induction at 0.3 µM in the test on T-cell [1] and with T-cell [2] were 1.01 to 1.3 and 1.01 to 2.5, respectively. For the same compound, the fold induction at 1 µM in the test on T-cell [1] was in the range of 1.01 to 1.3; with T-cell [2], 1.01 to 2.5; in the test with T-cell [5], 0.051 to 0.1; in the test on T-cell [6], 0.801 to 1. The fold induction at 4 µM lay within 1.01 to 1.3 with T-cell [1] and 5 to 7.5 in the test on T-cell [2]. The IC50 on Cbl-b [3] is less than 0.1 µM; on Cbl-b [4], not above 0.1 µM. The fold induction at 8 µM was more than 0.201 with T-cell [5] and more than 1 with T-cell [6]. At Cbl-b (residues 36-427), this compound returned a dissociation constant Kd of 0.1 to 0.3 µM.

For the compound `Cn1cnnc1C(F)(F)[C@](C)(F)c1cccc(N2Cc3c(cc(CN4CC(F)C4)cc3C(F)(F)F)C2=O)c1` [Compound 451, (R)-6-((3-fluoroazetidin-1-yl)methyl)-2-(3-(1,1,2-trifluoro-1-(4-methyl-4H-1,2,4-triazol-3-yl)propan-2-yl)phenyl)-4-(trifluoromethyl)isoindolin-1-one], the fold induction at 0.3 µM with T-cell [1] lay in the range of 1.01 to 1.3; in the test with T-cell [2], 1.01 to 2.5. In addition, the fold induction at 1 µM is 1.01 to 1.3 in the test on T-cell [1], 5 to 7.5 in the test on T-cell [2], 0.101 to 0.15 in the test with T-cell [5] and 0.801 to 1 in the test on T-cell [6]. Further, the fold induction at 4 µM in the test on T-cell [1] was 1.31 to 1.5; with T-cell [2], more than 7.5. The IC50 is 0.1 to 0.3 µM on Cbl-b [3] and not above 0.3 µM on Cbl-b [4]. For the same compound, the fold induction at 8 µM in the test on T-cell [5] was more than 0.201; in the test on T-cell [6] it was more than 1. Besides, at Cbl-b (residues 36-427), the Kd was less than 0.1 µM.

On to `Cn1cnnc1C(F)(F)[C@](C)(F)c1cccc(N2Cc3c(cc(CN4CC[C@H](S(C)(=O)=O)C4)cc3C(F)(F)F)C2=O)c1` [Compound 457, 6-(((S)-3-(Methylsulfonyl)pyrrolidin-1-yl)methyl)-2-(3-((R)-1,1,2-trifluoro-1-(4-methyl-4H-1,2,4-triazol-3-yl)propan-2-yl)phenyl)-4-(trifluoromethyl)isoindolin-1-one], for which the fold induction at 0.3 µM is 1.01 to 1.3 in the test on T-cell [1] and 2.51 to 5 in the test with T-cell [2]. In addition, the fold induction at 1 µM fell in the range of 1.01 to 1.3 in the test with T-cell [1], 2.51 to 5 with T-cell [2], 0.101 to 0.15 with T-cell [5] and 0.801 to 1 in the test on T-cell [6]. Further, the results for the fold induction at 4 µM with T-cell [1] and in the test on T-cell [2] were 1.01 to 1.3 and more than 7.5, respectively. For the same compound, the IC50 on Cbl-b [3] is less than 0.1 µM; at Cbl-b [4] it was not above 0.1 µM. Further, the fold induction at 8 µM is more than 0.201 in the test with T-cell [5] and more than 1 with T-cell [6]. At Cbl-b (residues 36-427), the Kd was less than 0.1 µM.

Consider `Cn1cnnc1C(F)(F)[C@](C)(F)c1cccc(N2Cc3c(cc(CN4CC[C@@H](S(C)(=O)=O)C4)cc3C(F)(F)F)C2=O)c1` [Compound 458, 6-(((R)-3-(Methylsulfonyl)pyrrolidin-1-yl)methyl)-2-(3-((R)-1,1,2-trifluoro-1-(4-methyl-4H-1,2,4-triazol-3-yl)propan-2-yl)phenyl)-4-(trifluoromethyl)isoindolin-1-one], for which the fold induction at 0.3 µM in the test on T-cell [1] is 1.01 to 1.3; with T-cell [2], 2.51 to 5. The fold induction at 1 µM was in the range of 1.01 to 1.3 in the test on T-cell [1], 5 to 7.5 in the test with T-cell [2], 0.151 to 0.2 in the test with T-cell [5] and 0.801 to 1 in the test with T-cell [6]. In addition, the fold induction at 4 µM is 1.31 to 1.5 with T-cell [1] and more than 7.5 in the test with T-cell [2]. For the same compound, the values for the IC50 on Cbl-b [3] and on Cbl-b [4] were less than 0.1 µM and not above 0.1 µM, respectively. The fold induction at 8 µM was more than 0.201 in the test on T-cell [5] and more than 1 in the test with T-cell [6]. This compound gave a Kd at Cbl-b (residues 36-427) of less than 0.1 µM.

With `Cc1c[nH]nc1C[C@@H](C)c1cccc(N2Cc3c(cc(C(=O)N4C[C@@H](O)C[C@H]4C)cc3C(F)(F)F)C2=O)c1` [Compound 464, 6-((2R,4S)-4-hydroxy-2-methylpyrrolidine-1-carbonyl)-2-(3-((R)-1-(4-methyl-1H-pyrazol-3-yl)propan-2-yl)phenyl)-4-(trifluoromethyl)isoindolin-1-one], the fold induction at 0.3 µM in the test on T-cell [1] lay within 1.01 to 1.3; in the test with T-cell [2], 1.01 to 2.5. For the same compound, the fold induction at 1 µM was 1.01 to 1.3 in the test on T-cell [1], 2.51 to 5 in the test on T-cell [2], 0.151 to 0.2 with T-cell [5] and more than 1 with T-cell [6]. For the same compound, the fold induction at 4 µM in the test with T-cell [1] was 1.31 to 1.5; with T-cell [2], more than 7.5. Also, the figures for the IC50 on Cbl-b [3] and on Cbl-b [4] were less than 0.1 µM and not above 0.1 µM, respectively. The fold induction at 8 µM in the test on T-cell [5] is more than 0.201; in the test on T-cell [6] it was more than 1. The compound also displayed a Kd at Cbl-b (residues 36-427) of less than 0.1 µM.

As to `C[C@H](Cc1n[nH]cc1C(F)(F)F)c1cccc(N2Cc3c(cc(C(=O)N4CC[C@H](O)C4)cc3C(F)(F)F)C2=O)c1` [Compound 465, 6-((S)-3-hydroxypyrrolidine-1-carbonyl)-4-(trifluoromethyl)-2-(3-((R)-1-(4-(trifluoromethyl)-1H-pyrazol-3-yl)propan-2-yl)phenyl)isoindolin-1-one], the results for the fold induction at 0.3 µM with T-cell [1] and in the test with T-cell [2] were 1.01 to 1.3 and 1.01 to 2.5, respectively. In addition, the fold induction at 1 µM with T-cell [1] was in the range of 1.01 to 1.3; in the test on T-cell [2], 1.01 to 2.5; in the test on T-cell [5] it was 0.051 to 0.1; with T-cell [6], 0.801 to 1. For the same compound, the fold induction at 4 µM in the test with T-cell [1] is 1.01 to 1.3; with T-cell [2], 2.51 to 5. In addition, the IC50 is less than 0.1 µM on Cbl-b [3] and not above 0.1 µM on Cbl-b [4]. Moreover, the fold induction at 8 µM with T-cell [5] was 0.151 to 0.2; in the test on T-cell [6] it was more than 1. Besides, on Cbl-b (residues 36-427), the Kd is less than 0.1 µM.

Regarding `C[C@@H](c1cccc(N2Cc3c(cccc3C(F)(F)F)C2=O)c1)C(F)(F)c1nncn1C` [Compound 467a, (S)-2-(3-(1,1-difluoro-1-(4-methyl-4H-1,2,4-triazol-3-yl)propan-2-yl)phenyl)-4-(trifluoromethyl)isoindolin-1-one], the figures for the fold induction at 0.3 µM in the test on T-cell [1] and in the test with T-cell [2] were 1.01 to 1.3 and 1.01 to 2.5, respectively. Also, the fold induction at 1 µM with T-cell [1] is 1.01 to 1.3; with T-cell [2], 1.01 to 2.5; with T-cell [5] it was less than 0.05; with T-cell [6] it was 0.601 to 0.8. The fold induction at 4 µM in the test on T-cell [1] fell in the range of 1.01 to 1.3; in the test with T-cell [2], 2.51 to 5. In addition, the IC50 was 0.1 to 0.3 µM on Cbl-b [3] and not above 0.3 µM at Cbl-b [4]. The values for the fold induction at 8 µM in the test with T-cell [5] and in the test with T-cell [6] were 0.101 to 0.15 and 0.801 to 1, respectively. On Cbl-b (residues 36-427), the Kd lay within 0.301 to 1 µM.

In the case of `Cn1cnnc1C[C@H](c1cccc(N2Cc3c(cccc3C(F)(F)F)C2=O)c1)C(F)(F)F` [Compound 471a, (R)-2-(3-(1,1,1-trifluoro-3-(4-methyl-4H-1,2,4-triazol-3-yl)propan-2-yl)phenyl)-4-(trifluoromethyl)isoindolin-1-one], the fold induction at 0.3 µM with T-cell [1] was in the range of 1.01 to 1.3; in the test with T-cell [2], 1.01 to 2.5. Moreover, the fold induction at 1 µM with T-cell [1] lay in the range of 1.01 to 1.3; in the test with T-cell [2], 1.01 to 2.5; in the test on T-cell [5], 0.051 to 0.1; in the test with T-cell [6], 0.601 to 0.8. Further, the values for the fold induction at 4 µM in the test with T-cell [1] and in the test with T-cell [2] were 1.01 to 1.3 and 1.01 to 2.5, respectively. The IC50 was 0.1 to 0.3 µM at Cbl-b [3] and not above 0.3 µM at Cbl-b [4]. Also, the fold induction at 8 µM with T-cell [5] lay in the range of 0.101 to 0.15; in the test on T-cell [6], 0.801 to 1. This compound had a Kd at Cbl-b (residues 36-427) of 0.301 to 1 µM.
